In US20210169690A1, “Self-Retaining Implantable Drug Delivery Device” (GoldenBiotech, LLC, priority 2019, published 2021):
Values belong to the compound of their own block, whether it stands above or below them.

Legend:
Assay type in all cases: physicochemical
[1] = Visual examination of physical appearance and mixing of drug-loaded silicone polymer matrix test samples
Source text: To test the loading capacity of a silicone elastomer polymer matrix for a prostaglandin analogue, polymer matrix with different amounts and types of a prostaglandin analogue were made and the physical and mechanical properties of the resulting polymerized drug-loaded matrix were characterized (Tables 1-3). These polymer matrix test samples were made by mixing together a prostaglandin analogue, a liquid cyclic vinyl siloxane elastomer, a crosslinker, and a catalyst using a high-speed mixer and then heated the capped container at 70° C. for 24 hours to cure the mixture. A filler, such as a fumed silica, was also used to provide sufficient mechanical strength to the polymerized matrix. In addition, an inhibitor was used to slow the crosslinking reaction to a workable rate. The resulting thin-disc-shaped drug-loaded polymer matrix was allowed to cool to room temperature and then placed in 4° C. for 24 hours to increase stiffness of the material. The physical appearance of each drug-loaded polymer matrix test sample was examined visually and its mechanical properties analyzed using a durometer.

[2] = Modified Higuchi plot (2A versus Q^2/T)
Method: Travoprost and Latanoprost are oily liquids at room temperature whereas Bimatoprost is a solid at room temperature. To determine whether the liquid versus solid phase of these drugs affects their release from the silicone polymer matrix, data was analyzed using an alternative plot based on the Higuchi equation where twice the drug loading value (2A) is plotted on the […] and the average slope of the plot of cumulative drug released squared versus time in hours (Q^2/T) is plotted on the […].

[3] = Korsmeyer-Peppas analysis of drug release data; conditions: for Average n Values, Korsmeyer-Peppas Analysis, Mean: Mean over drug loadings
Method: To confirm the results obtained based on the Higuchi equation analysis, the data above was also analyzed using the Korsmeyer-Peppas plot, which evaluates the mechanism of drug release by plotting the log of percent drug released over the log time in hours. If n equals 0.45, then Fickian diffusion is indicated for a cylinder (0.42 for cylinder of low aspect ratio). […] As exemplified FIG. 11, data is plotted as the log of cumulative percent drug released on the y-axis and the log time in hours on the x-axis.

[4] = Higuchi equation analysis of drug release data
Method: In order to ascertain whether the mechanism of drug release was based on diffusion, data obtained from various coated silicone polymer matrices were analyzed using the Higuchi equation. This analysis determined the linearity between the cumulative amount of drug released and the square root of time (SQRT). […] As exemplified FIG. 10, data is plotted as the square root of time taken on the x-axis and the cumulative percentage of drug release on the y-axis.

[5] = Chemical stability of prostaglandin analogues in PBS, RPHPLC; conditions: PBS at pH 4, 7 and 10; 4° C., 33° C. and 50° C.
Method: The chemical stability of prostaglandin analogues was also examined. In these experiments, a prostaglandin analogue was incubated in phospho-buffered saline (PBS) at pH 4, 7 and 10 and at 4° C., 33° C. and 50° C. representing long term storage, eye temperature and accelerate temperature conditions respectively. Analyses were performed by RPHPLC as described in Example 2, noting any hydrolysis products formed. […] This stability is most likely due to the amide linkage in Bimatoprost which is much more hydrolytically stable than the ester linkage in Latanoprost and Travoprost.

[6] = In vitro drug release from silicone polymer matrix test samples in PBS pH 7.4 at 37° C., RPHPLC; conditions: for Daily Release Rate: 25% Latanoprost matrix plug, PTFE Thread Seal Tape coat, two 18G depot channels
Method: To test the controlled release properties of the disclosed drug-loaded silicone polymer matrices, the effects of a coating were examined. In these experiments, test samples were made as described in Example 1 to produce thin-disc-shaped drug-loaded polymer matrix. From this material, test samples were prepared by 1) cutting out rectangular polygons of about 3 mm length, about 1 mm width and about 1 mm height were cut from polymerized drug-loaded material; or 2) cutting out cylindrical plugs of about 3 mm length and having a diameter of about 0.5 mm to about 1 mm. The weight of the test samples were in the range about 0.1 mg to about 4 mg.
Certain of these cut test samples were then coated using one of three procedures. Cut test samples were coated with a polymer like poly(p-xylylene) (PARYLENE) to a thickness of about 0.10 μm to about 0.95 μm using a vapor phase deposition procedure. Similarly, cut test samples were coated a metal like titanium to a thickness of about 0.10 μm to about 0.95 μm using a vapor phase deposition procedure. Alternatively, cut test samples were physically wrapped with a tape like polytetrafluoroethylene tape and sealed using cyanoacrylate adhesive.
The presence of opening in a coated test sample was also examined. In these experiments, coated test samples were punctured to produce opening through the coating layer. From one to four opening were made using the tip of an 18G, 23G, 27G or 31G needle. Two types of opening were produced 1) surface pores which created openings only through the coating layer but left the polymer matrix intact; and 2) depot channels which created a tunnel through the entire coated test sample from one end to the other end.
To examine the drug release properties of a test sample, each sample was placed in 2 mL Eppendorf tube containing 1.5 mL of Phosphate Buffered Saline, pH 7.4 (PBS). These tubes were slowly rocked at 37° C. in an incubator. At given time points the PBS was completely removed from the tube and refilled with fresh PBS. An aliquot of the removed PBS was then analyzed by reversed phase HPLC (RPHPLC) to determine the amount of drug released from the test sample during the incubation period. In these experiments, a 10 μL injection of the test sample aliquot was run on an Agilent 1260 Infinity in a reverse phase isocratic mode using UV detection at 210 nm. The column was a Hypersil GOLD Phenyl column, (Dim. (mm) 250×4.6) and the mobile phase was a 1:1 mixture of acetonitrile to aqueous buffer (comprising HPLC grade water mixed with 5 mM ammonium acetate and 0.02% formic acid). The flow rate was 1.2 mL/min and column temperature was 22° C. Peak detection and quantitation was determined by establishing a calibration curve using known amounts of each drug tested and the amount of drug present in the test sample aliquot interpolated from this calibration curve using ChemStation software.

average slope of cumulative drug released squared versus time in hours (Q^2/T) ([2]; Loading (A %) 1.0): 0.204 ± 0.035 | average slope of cumulative drug released squared versus time in hours (Q^2/T) ([2]; Loading (A %) 2.5): 0.387 ± 0.009 | average slope of cumulative drug released squared versus time in hours (Q^2/T) ([2]; Loading (A %) 5.0): 1.680 ± 0.232 | average slope of cumulative drug released squared versus time in hours (Q^2/T) ([2]; Loading (A %) 10): 2.327 ± 0.252 | relationship of Q^2/T to 2A in modified Higuchi plot ([2]; Table 10, FIG. 12 and FIG. 13): linear relationship | Average n Values, Korsmeyer-Peppas Analysis ([3]; Drug Loading 1%): 0.326± | Average n Values, Korsmeyer-Peppas Analysis ([3]; Drug Loading 2.5%): 0.372± | Average n Values, Korsmeyer-Peppas Analysis ([3]; Drug Loading 5%): 0.411± | Average n Values, Korsmeyer-Peppas Analysis ([3]; Drug Loading 10%): 0.377± | Average n Values, Korsmeyer-Peppas Analysis ([3]; Drug Loading 15%): 0.380± | Average n Values, Korsmeyer-Peppas Analysis ([3]; Drug Loading 20%): 0.601± | Average n Values, Korsmeyer-Peppas Analysis, Mean [3]: 0.37 ± 0.08 | Average Linear Regression r^2 Value, Higuchi Equation Analysis ([4]; Drug Loading 1%): 0.992 | Average Linear Regression r^2 Value, Higuchi Equation Analysis ([4]; Drug Loading 2.5%): 0.995 | Average Linear Regression r^2 Value, Higuchi Equation Analysis ([4]; Drug Loading 5%): 0.997 | Average Linear Regression r^2 Value, Higuchi Equation Analysis ([4]; Drug Loading 10%): 0.988 | Average Linear Regression r^2 Value, Higuchi Equation Analysis ([4]; Drug Loading 15%): 0.994 | Average Linear Regression r^2 Value, Higuchi Equation Analysis ([4]; Drug Loading 20%): 0.972
SMILES: CCNC(=O)CCC/C=C\C[C@@H]1[C@@H](/C=C/[C@@H](O)CCc2ccccc2)[C@H](O)C[C@@H]1O [Bimatoprost]
mixing in the liquid siloxane elastomer ([1]; 15% or 20% Bimatoprost test samples): difficult to mix in the liquid siloxane elastomer | physical examination of test sample ([1]; 20% Bimatoprost test sample): brittle and contained clumps of unincorporated components from the mixture | chemical stability (hydrolysis products) [5]: excellent stability with Bimatoprost being the most stable

Average n Values, Korsmeyer-Peppas Analysis ([3]; Drug Loading 5%): 0.504± | Average n Values, Korsmeyer-Peppas Analysis ([3]; Drug Loading 10%): 0.501± | Average n Values, Korsmeyer-Peppas Analysis ([3]; Drug Loading 15%): 0.712± | Average n Values, Korsmeyer-Peppas Analysis ([3]; Drug Loading 20%): 1.200± | Average n Values, Korsmeyer-Peppas Analysis, Mean [3]: 0.57 ± 0.16 | Daily Release Rate ([6]; day 7): 3.86 µg/day | Daily Release Rate ([6]; day 19): 5.68 µg/day | Daily Release Rate ([6]; day 29): 3.60 µg/day | Daily Release Rate ([6]; day 64): 5.11 µg/day | Daily Release Rate ([6]; day 71): 8.13 µg/day | Daily Release Rate ([6]; day 106): 2.82 µg/day | Daily Release Rate ([6]; day 122): 1.18 µg/day | period of near zero order release ([6]; coated test sample, 25% Latanoprost, four surface pores): 42 days | total amount of drug released ([6]; coated test sample, 25% Latanoprost, four surface pores, as of 140 days): 2.2% | Average Linear Regression r^2 Value, Higuchi Equation Analysis ([4]; Drug Loading 5%): 0.964 | Average Linear Regression r^2 Value, Higuchi Equation Analysis ([4]; Drug Loading 10%): 0.983 | Average Linear Regression r^2 Value, Higuchi Equation Analysis ([4]; Drug Loading 15%): 0.990 | Average Linear Regression r^2 Value, Higuchi Equation Analysis ([4]; Drug Loading 20%): 0.990
SMILES: CC(C)OC(=O)CCC/C=C\C[C@@H]1[C@@H](CC[C@@H](O)CCc2ccccc2)[C@H](O)C[C@@H]1O [Latanoprost]
physical examination of test sample ([1]; 25% Latanoprost test sample): exhibited more elasticity but had a surface with tacky attributes and a consistency that was not fully homogeneous | release profile ([6]; uncoated silicone polymer matrix loaded with 10% Latanoprost, FIG. 5): rapid release of the drug over the first five days, which then tapers off and by day 12 shows no further significant release of Latanoprost
